According to US20160083391A1, “TRICYCLIC PIPERAZINE DERIVATIVE” (Sunovion Pharmaceuticals Inc., priority 2014, published 2016):

test system: PDE1; test: In vitro HTRF PDE1 inhibition assay; assay type: biochemical; details: HTRF cGMP assay, 100 nM cyclic GMP, PDE (1A3, 1B or 1C) with calmodulin, 45 minutes at 37° C.; isoform of the tabulated values not stated
Excerpt: An exemplary procedure for the in vitro Homogenous Time Resolved Fluorescence assay, which can be used to determine the inhibitory action of compounds of the invention toward. PDE1 or its isoforms, follows.
The HTRF PDE1 assay utilized the HTRF (Homogenous Time Resolved Fluorescence) technology, which is based on the competition between unlabeled cyclic nucleotide and cyclic nucleotide labeled with XL665 for the binding to cyclic nucleotide-specific antibody labeled with cryptate. The HTRF signal is thus inversely proportional to the concentration of cyclic nucleotide being measured. Since phosphodiesterases break down cyclic nucleotides the HTRF signal was used to determine PDE activity.
The Cisbio cGMP HTRF assay kit (Cat no: 62GM2PEC) was utilized. Cyclic GMP was diluted to 200 nM in HTRF assay buffer (1 mM CaCl2, 10 mM MgCl2, 10 mM Tris-HCl, 0.1% BSA, pH7.4). 10 μl of compound or DMSO was diluted in 200 nM cyclic GMP solution and added to wells of a 96 well white plate to give 100 nM cyclic GMP in 1% DMSO final concentration. PDE (1A3, 1B or 1C) was diluted to 2× working concentration in HTRF assay buffer with […] Calmodulin, and 10 μl was added to initiate the reaction. The plate was then incubated for 45 minutes at 37° C. d2-Labelled cyclic GMP and anti-cGMP cryptate were diluted in 50 mM phosphate buffer, 0.8M KF, 1% Triton X100, 0.2% BSA, pH7.0. Following incubation 10 μl d2-cGMP, then 10 μl anti cGMP cryptate were added to each well and the plate was incubated for 45 minutes at room temperature. The plate was then read on Perkin Elmer Victor at 2 different FRET readings ex/emm 340 nm/665 nm and 340 nm/615 nm.
Compounds having an IC50 of <1 μM, are denoted as +++. Compounds having an IC50 of 1-10 μM, are denoted as ++. Compounds having an IC50 of >10 μM, are denoted as +.

**Q.** For `CC(C)c1nn(C)c2c(=O)n3c(nc12)C(Cc1ccccc1)N(Cc1ccccc1)CC3` (racemic) [Compound I-48, (±)-5,6-Dibenzyl-3-isopropyl-1-methyl-5,6,7,8-tetrahydropyrazino[1,2-a]pyrazolo[4,3-d]pyrimidin-10(1H)-one], which IC50 is on record?
**A.** The IC50 was greater than 10 µM.

**Q.** With `CC(C)CC1c2nc3c(cnn3C(C)C)c(=O)n2CCN1Cc1ccccc1` (racemic) [Compound I-56, (±)-8-benzyl-9-isobutyl-1-isopropyl-6,7,8,9-tetrahydropyrazino[1,2-a]pyrazolo[3,4-d]pyrimidin-4(1H)-one] as the compound, how does the IC50 read?
**A.** The IC50 was 1 to 10 µM.

**Q.** How did the IC50 turn out when `CC(C)n1ncc2c(=O)n3c(nc21)C(c1ccccc1)N(C)CC3` (racemic) [Compound I-60, (±)-1-Isopropyl-8-methyl-9-phenyl-6,7,8,9-tetrahydropyrazino[1,2-a]pyrazolo[3,4-d]pyrimidin-4(1H)-one] was run?
**A.** The IC50 was greater than 10 µM.

**Q.** With `CC1CNCc2nc3c(cnn3C3CCCC3)c(=O)n21` (racemic) [Compound I-99, (±)-1-cyclopentyl-6-methyl-6,7,8,9-tetrahydropyrazino[1,2-a]pyrazolo[3,4-d]pyrimidin-4(1H)-one] as the compound, how does the IC50 read?
**A.** The IC50 was greater than 10 µM.

**Q.** With `CC1CN(C)Cc2nc3c(cnn3C3CCCC3)c(=O)n21` (racemic) [Compound I-100, (±)-1-Cyclopentyl-6,8-dimethyl-6,7,8,9-tetrahydropyrazino[1,2-a]pyrazolo[3,4-d]pyrimidin-4(1H)-one] as the compound, how does the IC50 read?
**A.** The IC50 was greater than 10 µM.

**Q.** How did the IC50 turn out when `CC1CN(Cc2ccccc2)Cc2nc3c(cnn3C3CCCC3)c(=O)n21` (racemic) [Compound I-101, (±)-8-Benzyl-1-cyclopentyl-6-methyl-6,7,8,9-tetrahydropyrazino[1,2-a]pyrazolo[3,4-d]pyrimidin-4(1H)-one] was run?
**A.** Its IC50 is 1 to 10 µM.

**Q.** How did the IC50 turn out when `CN1Cc2nc3c(cnn3C3CCCC3)c(=O)n2C(c2ccccc2)C1` (racemic) [Compound I-102, (±)-1-cyclopentyl-8-methyl-6-phenyl-6,7,8,9-tetrahydropyrazino[1,2-a]pyrazolo[3,4-d]pyrimidin-4(1H)-one] was run?
**A.** Its IC50 is greater than 10 µM.

**Q.** `CC1Cn2c(nc3c(cnn3C(C)C)c2=O)CN1` (racemic) [Compound I-103, (±)-1-Isopropyl-7-methyl-6,7,8,9-tetrahydropyrazino[1,2-a]pyrazolo[3,4-d]pyrimidin-4(1H)-one] was tested. Which IC50 did it give?
**A.** The IC50 was greater than 10 µM.

**Q.** For `CC1Cn2c(nc3c(cnn3C(C)C)c2=O)CN1C` (racemic) [Compound I-104, (±)-1-Isopropyl-7,8-dimethyl-6,7,8,9-tetrahydropyrazino[1,2-a]pyrazolo[3,4-d]pyrimidin-4(1H)-one], which IC50 is on record?
**A.** Its IC50 is greater than 10 µM.

**Q.** With `CC1Cn2c(nc3c(cnn3C(C)C)c2=O)CN1Cc1ccccc1` (racemic) [Compound I-105, (±)-8-Benzyl-1-isopropyl-7-methyl-6,7,8,9-tetrahydropyrazino[1,2-a]pyrazolo[3,4-d]pyrimidin-4(1H)-one] as the compound, how does the IC50 read?
**A.** Its IC50 is less than 1 µM.

**Q.** How did the IC50 turn out when `CC(C)n1ncc2c(=O)n3c(nc21)CNC(c1ccccc1)C3` (racemic) [Compound I-106, (±)-1-isopropyl-7-phenyl-6,7,8,9-tetrahydropyrazino[1,2-a]pyrazolo[3,4-d]pyrimidin-4(1H)-one] was run?
**A.** The IC50 was greater than 10 µM.

**Q.** For `CC(C)n1ncc2c(=O)n3c(nc21)CN(C)C(c1ccccc1)C3` (racemic) [Compound I-107, (±)-1-Isopropyl-8-methyl-7-phenyl-6,7,8,9-tetrahydropyrazino[1,2-a]pyrazolo[3,4-d]pyrimidin-4(1H)-one], which IC50 is on record?
**A.** Its IC50 is greater than 10 µM.

**Q.** How did the IC50 turn out when `CC(C)n1ncc2c(=O)n3c(nc21)CN(Cc1ccccc1)C(c1ccccc1)C3` (racemic) [Compound I-108, (±)-8-Benzyl-1-isopropyl-7-phenyl-6,7,8,9-tetrahydropyrazino[1,2-a]pyrazolo[3,4-d]pyrimidin-4(1H)-one] was run?
**A.** The IC50 was greater than 10 µM.

**Q.** Which IC50 does the source give for `CC(C)n1ncc2c(=O)n3c(nc21)CNC(Cc1ccccc1)C3` (racemic) [Compound I-109, (±)-7-Benzyl-1-isopropyl-6,7,8,9-tetrahydropyrazino[1,2-a]pyrazolo[3,4-d]pyrimidin-4(1H)-one] here?
**A.** Its IC50 is greater than 10 µM.

**Q.** `CC(C)n1ncc2c(=O)n3c(nc21)CN(C)C(Cc1ccccc1)C3` (racemic) [Compound I-110, (±)-7-Benzyl-1-isopropyl-8-methyl-6,7,8,9-tetrahydropyrazino[1,2-a]pyrazolo[3,4-d]pyrimidin-4(1H)-one] was tested. Which IC50 did it give?
**A.** The IC50 was greater than 10 µM.

**Q.** `CC(c1ccc(Cl)cc1)N1CCn2c(nc3c(cnn3C3CCCC3)c2=O)C1` (racemic) [Compound I-113, (±)-8-(1-(4-Chlorophenyl)ethyl)-1-cyclopentyl-6,7,8,9-tetrahydropyrazino[1,2-a]pyrazolo[3,4-d]pyrimidin-4(1H)-one] was tested. Which IC50 did it give?
**A.** Its IC50 is 1 to 10 µM.

**Q.** For `COc1ccc(C(C)N2CCn3c(nc4c(cnn4C4CCCC4)c3=O)C2)cc1` (racemic) [Compound I-114, (±)-1-Cyclopentyl-8-(1-(4-methoxyphenyl)ethyl)-6,7,8,9-tetrahydropyrazino[1,2-a]pyrazolo[3,4-d]pyrimidin-4(1H)-one], which IC50 is on record?
**A.** Its IC50 is 1 to 10 µM.

**Q.** Which IC50 does the source give for `CC1c2nc3c(cnn3C3CCCC3)c(=O)n2CCN1Cc1ccc(Cl)cc1` (racemic) [Compound I-117, (±)-8-(4-Chlorobenzyl)-1-cyclopentyl-9-methyl-6,7,8,9-tetrahydropyrazino[1,2-a]pyrazolo[3,4-d]pyrimidin-4(1H)-one] here?
**A.** The IC50 was 1 to 10 µM.

**Q.** For `COc1ccc(CN2CCn3c(nc4c(cnn4C4CCCC4)c3=O)C2C)cc1` (racemic) [Compound I-118, (±)-1-Cyclopentyl-8-(4-methoxybenzyl)-9-methyl-6,7,8,9-tetrahydropyrazino[1,2-a]pyrazolo[3,4-d]pyrimidin-4(1H)-one], which IC50 is on record?
**A.** Its IC50 is 1 to 10 µM.

**Q.** `CC1Cn2c(nc3c(cnn3C3CCCC3)c2=O)CN1Cc1ccc(Cl)cc1` (racemic) [Compound I-119, (±)-8-(4-Chlorobenzyl)-1-cyclopentyl-7-methyl-6,7,8,9-tetrahydropyrazino[1,2-a]pyrazolo[3,4-d]pyrimidin-4(1H)-one] was tested. Which IC50 did it give?
**A.** Its IC50 is less than 1 µM.

**Q.** For `COc1ccc(CN2Cc3nc4c(cnn4C4CCCC4)c(=O)n3CC2C)cc1` (racemic) [Compound I-120, (±)-1-Cyclopentyl-8-(4-methoxybenzyl)-7-methyl-6,7,8,9-tetrahydropyrazino[1,2-a]pyrazolo[3,4-d]pyrimidin-4(1H)-one], which IC50 is on record?
**A.** Its IC50 is less than 1 µM.

**Q.** `CC1CN(Cc2ccc(Cl)cc2)Cc2nc3c(cnn3C3CCCC3)c(=O)n21` (racemic) [Compound I-121, (±)-8-(4-Chlorobenzyl)-1-cyclopentyl-6-methyl-6,7,8,9-tetrahydropyrazino[1,2-a]pyrazolo[3,4-d]pyrimidin-4(1H)-one] was tested. Which IC50 did it give?
**A.** Its IC50 is 1 to 10 µM.

**Q.** How did the IC50 turn out when `COc1ccc(CN2Cc3nc4c(cnn4C4CCCC4)c(=O)n3C(C)C2)cc1` (racemic) [Compound I-122, (±)-1-Cyclopentyl-8-(4-methoxybenzyl)-6-methyl-6,7,8,9-tetrahydropyrazino[1,2-a]pyrazolo[3,4-d]pyrimidin-4(1H)-one] was run?
**A.** The IC50 was 1 to 10 µM.

**Q.** With `COc1ccc(CN2Cc3nc4c(cnn4C(C)C)c(=O)n3CC2C)cc1` (racemic) [Compound I-146, (±)-1-Isopropyl-8-(4-methoxybenzyl)-7-methyl-6,7,8,9-tetrahydropyrazino[1,2-a]pyrazolo[3,4-d]pyrimidin-4(1H)-one] as the compound, how does the IC50 read?
**A.** Its IC50 is 1 to 10 µM.

**Q.** `CC1Cn2c(nc3c(cnn3C(C)C)c2=O)CN1Cc1ccc(Cl)cc1` (racemic) [Compound I-147, (±)-8-(4-Chlorobenzyl)-1-isopropyl-7-methyl-6,7,8,9-tetrahydropyrazino[1,2-a]pyrazolo[3,4-d]pyrimidin-4(1H)-one] was tested. Which IC50 did it give?
**A.** The IC50 was less than 1 µM.

**Q.** `CC1Cn2c(nc3c(cnn3C(C)C)c2=O)CN1Cc1ccc(F)cc1` (racemic) [Compound I-148, (±)-8-(4-Fluorobenzyl)-1-isopropyl-7-methyl-6,7,8,9-tetrahydropyrazino[1,2-d]pyrazolo[3,4-d]pyrimidin-4(1H)-one] was tested. Which IC50 did it give?
**A.** Its IC50 is less than 1 µM.

**Q.** Which IC50 does the source give for `CC1Cn2c(nc3c(cnn3C(C)C)c2=O)CN1Cc1cccc(F)c1` (racemic) [Compound I-149, (±)-8-(3-Fluorobenzyl)-1-isopropyl-7-methyl-6,7,8,9-tetrahydropyrazino[1,2-a]pyrazolo[3,4-d]pyrimidin-4(1H)-one] here?
**A.** Its IC50 is less than 1 µM.

**Q.** For `CC1Cn2c(nc3c(cnn3C(C)C)c2=O)CN1c1ccc(Cl)cc1` (racemic) [Compound I-150, (±)-8-(4-Chlorophenyl)-1-isopropyl-7-methyl-6,7,8,9-tetrahydropyrazino[1,2-a]pyrazolo[3,4-d]pyrimidin-4(1H)-one], which IC50 is on record?
**A.** Its IC50 is 1 to 10 µM.

**Q.** `COc1cccc(N2Cc3nc4c(cnn4C(C)C)c(=O)n3CC2C)c1` (racemic) [Compound I-151, (±)-1-Isopropyl-8-(3-methoxyphenyl)-7-methyl-6,7,8,9-tetrahydropyrazino[1,2-a]pyrazolo[3,4-d]pyrimidin-4(1H)-one] was tested. Which IC50 did it give?
**A.** The IC50 was less than 1 µM.

**Q.** How did the IC50 turn out when `COc1cc(N2Cc3nc4c(cnn4C(C)C)c(=O)n3CC2C)ccc1F` (racemic) [Compound I-152, (±)-8-(4-Fluoro-3-methoxyphenyl)-1-isopropyl-7-methyl-6,7,8,9-tetrahydropyrazino[1,2-a]pyrazolo[3,4-d]pyrimidin-4(1H)-one] was run?
**A.** Its IC50 is less than 1 µM.
